According to ChEMBL document CHEMBL1201862, “PubChem BioAssay data set” (2004):
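Compound exposure: 48 hours, 5 concentrations, 96-well plates. GI50 marks 50% less growth.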 Calls of active or inactive are those of the source. Rule as the data show it: active = GI50 up to about 1.1 µM and inactive = higher.

What was measured:
Assay in all cases: inhibition of tumour cell growth, NCI panel, 48 h
SNB-78 = tested on: SNB-78
SF-268 = tested on: SF-268
NCI-H226 = tested on: NCI-H226
U-251 = tested on: U-251
HL-60 = tested on: HL-60
UACC-62 = tested on: UACC-62
LXFL 529 = tested on: LXFL 529
DMS-114 = tested on: DMS-114
SNB-19 = tested on: SNB-19
HT-29 = tested on: HT-29
SF-539 = tested on: SF-539
HOP-62 = tested on: HOP-62
A549 = tested on: A549
SF-295 = tested on: SF-295
HOP-92 = tested on: HOP-92
SK-MEL-2 = tested on: SK-MEL-2
OVCAR-5 = tested on: OVCAR-5
CAKI-1 = tested on: CAKI-1
A498 = tested on: A498

Measured: GI50

COc1ccccc1NC(=O)CC(=O)NNCC(=O)Nc1nc(-c2ccccc2)cs1
inactive: SNB-78 > 100 µM | SF-268 > 100 µM | NCI-H226 40.6 µM | U-251 > 100 µM | HL-60 > 100 µM | UACC-62 > 100 µM | LXFL 529 > 100 µM | DMS-114 > 100 µM | SNB-19 > 100 µM | HT-29 > 100 µM | SF-539 > 100 µM | HOP-62 > 100 µM | A549 > 100 µM | SF-295 > 100 µM

CCCCNc1nc(C#N)c(N)s1
inactive: HOP-92 > 100 µM | SNB-78 > 100 µM | SK-MEL-2 > 100 µM | SF-268 > 100 µM | NCI-H226 > 100 µM | U-251 > 100 µM | HL-60 > 100 µM | UACC-62 > 100 µM | LXFL 529 > 100 µM | OVCAR-5 > 100 µM | SNB-19 > 100 µM | HT-29 > 100 µM | SF-539 > 100 µM | HOP-62 > 100 µM | A549 > 100 µM | SF-295 > 100 µM | CAKI-1 > 100 µM

CN(CCO)c1nc2c(c(=O)[nH]1)CNCC2
inactive: HOP-92 > 100 µM | SNB-78 > 100 µM | SK-MEL-2 > 100 µM | SF-268 > 100 µM | NCI-H226 > 100 µM | U-251 > 100 µM | HL-60 > 100 µM | UACC-62 > 100 µM | LXFL 529 > 100 µM | OVCAR-5 > 100 µM | DMS-114 > 100 µM | SNB-19 > 100 µM | HT-29 > 100 µM | SF-539 > 100 µM | HOP-62 > 100 µM | A549 > 100 µM | SF-295 > 100 µM | CAKI-1 > 100 µM

CCN(CC)/[N+]([O-])=N/O
inactive: HOP-92 > 100 µM | SNB-78 > 100 µM | SK-MEL-2 > 100 µM | SF-268 > 100 µM | NCI-H226 > 100 µM | HL-60 > 100 µM | UACC-62 > 100 µM | A498 > 100 µM | LXFL 529 > 100 µM | OVCAR-5 > 100 µM | SNB-19 > 100 µM | HT-29 > 100 µM | SF-539 > 100 µM | HOP-62 > 100 µM | A549 > 100 µM | SF-295 > 100 µM | CAKI-1 > 100 µM

COC(=O)C1=C(C(=O)OC)C23C=CC=CC24C(C(=O)OC)=C(C(=O)OC)C4C1C3 (stereo not drawn)
inactive: HOP-92 > 100 µM | SNB-78 67.1 µM | SK-MEL-2 > 100 µM | SF-268 > 100 µM | U-251 > 100 µM | HL-60 41.7 µM | UACC-62 56.6 µM | LXFL 529 74.1 µM | OVCAR-5 > 100 µM | DMS-114 88.7 µM | SNB-19 > 100 µM | HT-29 > 100 µM | SF-539 > 100 µM | HOP-62 > 100 µM | A549 > 100 µM | SF-295 > 100 µM

COC(=O)C(=O)C(C(=O)C(=O)Nc1ccc(F)cc1)c1nc2ccc([N+](=O)[O-])cc2nc1O (stereo not drawn)
inactive: HOP-92 > 100 µM | SNB-78 > 100 µM | SF-268 > 100 µM | NCI-H226 > 100 µM | U-251 > 100 µM | HL-60 > 100 µM | A498 > 100 µM | LXFL 529 > 100 µM | OVCAR-5 > 100 µM | SNB-19 > 100 µM | HT-29 > 100 µM | SF-539 > 100 µM | HOP-62 > 100 µM | A549 > 100 µM | SF-295 > 100 µM | CAKI-1 > 100 µM

Cc1cc2c(c(C(=O)O)c1C)-c1cccc(F)c1C2=O
inactive: SNB-78 > 100 µM | SK-MEL-2 > 100 µM | SF-268 > 100 µM | NCI-H226 55.1 µM | U-251 > 100 µM | UACC-62 > 100 µM | LXFL 529 > 100 µM | OVCAR-5 > 100 µM | DMS-114 > 100 µM | SNB-19 67.8 µM | HT-29 > 100 µM | HOP-62 > 100 µM | A549 > 100 µM | SF-295 > 100 µM | CAKI-1 > 100 µM
